Patent US20210392895A1, “NOVEL OXADIAZOLES” (PI INDUSTRIES LIMITED, priority 2018, published 2021)
Counter-ions that a name gives are not always drawn.

Columns and labels:
[1] = system: Pyricularia oryzae; experiment: microbe, parasite or virus in culture; type: cell-based; details: 168 h, read-out: control
[2] = system: Phakopsora pachyrhizi; experiment: Phakopsora pachyrhizi test in soybean (greenhouse, preventive activity, disease severity rating); type: in vivo; details: preventive spray on soybean, compared to the untreated check
Method: To test the preventive activity of compounds, healthy young soybean plants, raised in the greenhouse, were sprayed with the active compound solution at the stated application rates inside spray cabinets using hallowcone nozzles. One day after treatment, the plants were inoculated with a suspension containing 2.1×10^6 Phakopsora pachyrhizi spores. The inoculated plants were then kept in the greenhouse chamber at 25° C. temperature and 90% relative humidity for disease expression. A visual assessment of the compound's performance was carried out by rating the disease severity (0-100% scale) on treated plants on 3, 7, 10 and 15 days after application. Efficacy (% control) of the compounds was calculated by comparing the disease rating in the treatment with the one of the untreated control. The treated plants were also assessed for plant compatibility by recording symptoms like necrosis, chlorosis and stunting.

Structure (SMILES) | inhibition of growth at 300 ppm [1] [%] | pest or weed control at 500 ppm [2] [%]
COc1ccc(CC(=O)N2CC[C@H](Oc3ccc(-c4noc(C(F)(F)F)n4)cc3)C2)cc1OC [Compound 5, (S)-2-(3,4-dimethoxyphenyl)-1-(3-(4-(5-(trifluoromethyl)-1,2,4-oxadiazol-3-yl)phenoxy)pyrrolidin-1-yl)ethan-1-one] | > 70 | > 70
O=C(Cc1ccccc1)N1CC[C@H](Oc2ccc(-c3noc(C(F)(F)F)n3)cc2)C1 [Compound 11, (S)-2-phenyl-1-(3-(4-(5-(trifluoromethyl)-1,2,4-oxadiazol-3-yl)phenoxy)pyrrolidin-1-yl)ethan-1-one] | > 70 | > 70
CCS(=O)(=O)N1CC[C@H](Oc2ccc(-c3noc(C(F)(F)F)n3)cc2)C1 [Compound 40, (S)-3-(4-((1-(ethylsulfonyl)pyrrolidin-3-yl)oxy)phenyl)-5-(trifluoromethyl)-1,2,4-oxadiazole] | > 70 | –
O=C(c1ccncc1)N1CC[C@@H](Oc2ccc(-c3noc(C(F)(F)F)n3)cn2)C1 [Compound 78, (R)-pyridin-4-yl(3-((5-(5-(trifluoromethyl)-1,2,4-oxadiazol-3-yl)pyridin-2-yl)oxy)pyrrolidin-1-yl)methanone] | > 70 | –
CC(=O)N1CC(N(c2ccc(-c3noc(C(F)(F)F)n3)cc2)c2ccc(-c3noc(C(F)(F)F)n3)cc2)C1 [Compound 90, 1-(3-(bis(4-(5-(trifluoromethyl)-1,2,4-oxadiazol-3-yl)phenyl)amino)azetidin-1-yl)ethan-1-one] | > 70 | –
O=C(c1ccccc1F)N1CCC(Oc2ccc(-c3noc(C(F)(F)F)n3)cc2)CC1 [Compound 92, (2-fluorophenyl)(4-(4-(5-(trifluoromethyl)-1,2,4-oxadiazol-3-yl)phenoxy)piperidin-1-yl)methanone] | > 70 | –
O=S(=O)(c1cccc(Cl)c1)N1CC[C@H](Oc2ccc(-c3noc(C(F)(F)F)n3)cc2)C1 [Compound 122, (S)-3-(4-((1-((3-chlorophenyl)sulfonyl)pyrrolidin-3-yl)oxy)phenyl)-5-(trifluoromethyl)-1,2,4-oxadiazole] | – | > 70
CN(c1ccc(-c2noc(C(F)(F)F)n2)cc1)C1CN(C(=O)c2ccc(F)cc2)C1 [Compound 124, (4-fluorophenyl)(3-(methyl(4-(5-(trifluoromethyl)-1,2,4-oxadiazol-3-yl)phenyl)amino)azetidin-1-yl)methanone] | – | > 70
CC(C)(C)OC(=O)N1CCC(Oc2cccc(-c3noc(C(F)(F)F)n3)c2)C1 (stereo not shown) [Compound 127, tert-butyl 3-(3-(5-(trifluoromethyl)-1,2,4-oxadiazol-3-yl)phenoxy)pyrrolidine-1-carboxylate] | – | > 70
FC(F)(F)c1nc(-c2cccc(OC3CCNC3)c2)no1 (stereo not shown) [Compound 128, 3-(3-(pyrrolidin-3-yloxy)phenyl)-5-(trifluoromethyl)-1,2,4-oxadiazole hydrochloride] | – | > 70
CN(c1ccc(-c2noc(C(F)(F)F)n2)cc1)C1CN(C(=O)C(C)(C)C)C1 [Compound 129, 2,2-dimethyl-1-(3-(methyl(4-(5-(trifluoromethyl)-1,2,4-oxadiazol-3-yl)phenyl)amino)azetidin-1-yl)propan-1-one] | – | > 70
CC(C)(C)C(=O)N1CCC(Oc2cccc(-c3noc(C(F)(F)F)n3)c2)C1 (stereo not shown) [Compound 130, 2,2-dimethyl-1-(3-(3-(5-(trifluoromethyl)-1,2,4-oxadiazol-3-yl)phenoxy)pyrrolidin-1-yl)propan-1-one] | – | > 70
Cc1ccc(C(=O)N2CCC(Oc3cccc(-c4noc(C(F)(F)F)n4)c3)C2)cc1 (stereo not shown) [Compound 135, p-tolyl(3-(3-(5-(trifluoromethyl)-1,2,4-oxadiazol-3-yl)phenoxy)pyrrolidin-1-yl)methanone] | > 70 | –
O=C(c1ccc(F)cc1)N1CCC(Oc2ccc(-c3noc(C(F)(F)F)n3)cc2)CC1 [Compound 142, (4-fluorophenyl)(4-(4-(5-(trifluoromethyl)-1,2,4-oxadiazol-3-yl)phenoxy)piperidin-1-yl)methanone] | – | > 70
O=C(c1ccc(C(F)(F)F)cc1)N1CCC(Oc2cccc(-c3noc(C(F)(F)F)n3)c2)C1 (stereo not shown) [Compound 143, (3-(3-(5-(trifluoromethyl)-1,2,4-oxadiazol-3-yl)phenoxy)pyrrolidin-1-yl)(4-(trifluoromethyl)phenyl)methanone] | – | > 70
O=C(c1cccc(Cl)c1)N1CCC(Oc2cccc(-c3noc(C(F)(F)F)n3)c2)C1 (stereo not shown) [Compound 144, (3-chlorophenyl)(3-(3-(5-(trifluoromethyl)-1,2,4-oxadiazol-3-yl)phenoxy)pyrrolidin-1-yl)methanone] | – | > 70

Structure (SMILES) | inhibition of growth at 300 ppm [1] [%] | pest or weed control at 500 ppm [2] [%]
O=C(Cc1ccc(Cl)cc1)N1CCC(Oc2ccc(-c3noc(C(F)(F)F)n3)cc2)CC1 [Compound 145, 2-(4-chlorophenyl)-1-(4-(4-(5-(trifluoromethyl)-1,2,4-oxadiazol-3-yl)phenoxy)piperidin-1-yl)ethan-1-one] | – | > 70
COc1ccc(C(=O)N2CCC(Oc3cccc(-c4noc(C(F)(F)F)n4)c3)C2)cc1 (stereo not shown) [Compound 146, (4-methoxyphenyl)(3-(3-(5-(trifluoromethyl)-1,2,4-oxadiazol-3-yl)phenoxy)pyrrolidin-1-yl)methanone] | – | > 70
Cc1ccsc1S(=O)(=O)N1CC[C@H](Oc2ccc(-c3noc(C(F)(F)F)n3)cc2)C1 [Compound 147, (S)-3-(4-((1-((3-methylthiophen-2-yl)sulfonyl)pyrrolidin-3-yl)oxy)phenyl)-5-(trifluoromethyl)-1,2,4-oxadiazole] | – | > 70
Cn1cnc(S(=O)(=O)N2CC[C@H](Oc3ccc(-c4noc(C(F)(F)F)n4)cc3)C2)c1 [Compound 148, (S)-3-(4-((1-((1-methyl-1H-imidazol-4-yl)sulfonyl)pyrrolidin-3-yl)oxy)phenyl)-5-(trifluoromethyl)-1,2,4-oxadiazole] | – | > 70
O=S(=O)(c1cccc(F)c1)N1CC[C@H](Oc2ccc(-c3noc(C(F)(F)F)n3)cn2)C1 [Compound 149, (S)-3-(6-((1-((3-fluorophenyl)sulfonyl)pyrrolidin-3-yl)oxy)pyridin-3-yl)-5-(trifluoromethyl)-1,2,4-oxadiazole] | – | > 70
N#Cc1ccc(S(=O)(=O)N2CC[C@H](Oc3ccc(-c4noc(C(F)(F)F)n4)cn3)C2)cc1 [Compound 150, (S)-4-((3-((5-(5-(trifluoromethyl)-1,2,4-oxadiazol-3-yl)pyridin-2-yl)oxy)pyrrolidin-1-yl)sulfonyl)benzonitrile] | – | > 70
O=S(=O)(c1cccc(C(F)(F)F)c1)N1CC[C@H](Oc2ccc(-c3noc(C(F)(F)F)n3)cn2)C1 [Compound 151, (S)-5-(trifluoromethyl)-3-(6-((1-((3-(trifluoromethyl)phenyl)sulfonyl)pyrrolidin-3-yl)oxy)pyridin-3-yl)-1,2,4-oxadiazole] | – | > 70
O=S(=O)(c1ccccc1F)N1CC[C@H](Oc2ccc(-c3noc(C(F)(F)F)n3)cn2)C1 [Compound 152, (S)-3-(6-((1-((2-fluorophenyl)sulfonyl)pyrrolidin-3-yl)oxy)pyridin-3-yl)-5-(trifluoromethyl)-1,2,4-oxadiazole] | – | > 70
O=S(=O)(c1cccnc1)N1CC[C@H](Oc2ccc(-c3noc(C(F)(F)F)n3)cn2)C1 [Compound 153, (S)-3-(6-((1-(pyridin-3-ylsulfonyl)pyrrolidin-3-yl)oxy)pyridin-3-yl)-5-(trifluoromethyl)-1,2,4-oxadiazole] | – | > 70
CC(C)S(=O)(=O)N1CC[C@H](Oc2ccc(-c3noc(C(F)(F)F)n3)cn2)C1 [Compound 155, (S)-3-(6-((1-(isopropylsulfonyl)pyrrolidin-3-yl)oxy)pyridin-3-yl)-5-(trifluoromethyl)-1,2,4-oxadiazole] | – | > 70
CC(C)(C)OC(=O)N1CC[C@@H](Sc2ccc(-c3noc(C(F)(F)F)n3)cc2)C1 [Compound 157, tert-butyl (R)-3-((4-(5-(trifluoromethyl)-1,2,4-oxadiazol-3-yl)phenyl)thio)pyrrolidine-1-carboxylate] | – | > 70
CN(c1ccc(-c2noc(C(F)(F)F)n2)cc1)C1CCN(C(=O)OC(C)(C)C)C1 (stereo not shown) [Compound 167, tert-butyl 3-(methyl(4-(5-(trifluoromethyl)-1,2,4-oxadiazol-3-yl)phenyl)amino)pyrrolidine-1-carboxylate] | > 70 | –
Cc1cccc(C(=O)N2CC[C@@H](Sc3ccc(-c4noc(C(F)(F)F)n4)cc3)C2)c1 [Compound 172, (R)-m-tolyl(3-((4-(5-(trifluoromethyl)-1,2,4-oxadiazol-3-yl)phenyl)thio)pyrrolidin-1-yl)methanone] | > 70 | –
O=C(c1ccccc1)N1CC[C@@H](Sc2ccc(-c3noc(C(F)(F)F)n3)cc2)C1 [Compound 177, (R)-phenyl(3-((4-(5-(trifluoromethyl)-1,2,4-oxadiazol-3-yl)phenyl)thio)pyrrolidin-1-yl)methanone] | > 70 | –
O=C(c1ccncc1)N1CCC(Oc2ccc(-c3noc(C(F)(F)F)n3)cc2)CC1 [Compound 179, pyridin-4-yl(4-(4-(5-(trifluoromethyl)-1,2,4-oxadiazol-3-yl)phenoxy)piperidin-1-yl)methanone] | > 70 | –
COc1cccc(S(=O)(=O)N2CC(N(C)c3ccc(-c4noc(C(F)(F)F)n4)cc3)C2)c1 [Compound 198, 1-((3-methoxyphenyl)sulfonyl)-N-methyl-N-(4-(5-(trifluoromethyl)-1,2,4-oxadiazol-3-yl)phenyl)azetidin-3-amine] | > 70 | –
